# Reference: patent publication EP0259014A2, “5-Deoxy-5-fluorokanamycin B derivatives and processes for the production thereof” (ZAIDAN HOJIN BISEIBUTSU KAGAKU KENKYU KAI, priority 1986, dated 1988)
# Like-named read-outs stand apart in the source and are kept apart here.
# How the values were obtained:
# [1] = system: Pseudomonas aeruginosa GN 315; assay: MIC, serial dilution on Mueller Hinton agar; format: cell-based; details: GN315; Pseudomonas aeruginosa GN 315, resistance mechanism AAC(6'); Mueller Hinton agar, 37°C, 18 hours; read-out: MIC.
# [2] = system: Escherichia coli K-12 LA 290 R55; assay: MIC, serial dilution on Mueller Hinton agar; format: cell-based; details: Escherichia coli, K12LA290R55, 18 h
# [3] = system: Klebsiella pneumoniae 22#3038; assay: MIC, serial dilution on Mueller Hinton agar; format: cell-based; details: Klebsiella pneumoniae 22#3038, resistance mechanism APH(3')-II, ANT(2"), 37°C, 18 hours
# Source text: The antibacterial spectra so determined of the new compounds No. 1 to No. 13 (each in the form of the free base) of this invention are as shown in Table 1 below.
# Providencia sp. Pv 16 = assay: MIC, serial dilution on Mueller Hinton agar; format: cell-based
# [4] = system: Corynebacterium bovis 1810; assay: MIC, serial dilution on Mueller Hinton agar; format: cell-based
# Proteus rettgeri GN 311 = assay: MIC, serial dilution on Mueller Hinton agar; format: cell-based; details: Providencia rettgeri
# Escherichia coli K-12 R5 = assay: MIC, serial dilution on Mueller Hinton agar; format: cell-based; details: K12R5, 18 h
# Serratia marcescens = assay: MIC, serial dilution on Mueller Hinton agar; format: cell-based
# [5] = system: Pseudomonas aeruginosa A3; assay: MIC, serial dilution on Mueller Hinton agar; format: cell-based
# [6] = system: Staphylococcus aureus Ap01; assay: MIC, serial dilution on Mueller Hinton agar; format: cell-based
# Escherichia coli K-12 = assay: MIC, serial dilution on Mueller Hinton agar; format: cell-based
# in vivo = details: mouse, iv
# [7] = system: Staphylococcus aureus 209P; assay: MIC, serial dilution on Mueller Hinton agar; format: cell-based
# Mycobacterium 607 = assay: MIC, serial dilution on Mueller Hinton agar; format: cell-based
# [8] = system: Escherichia coli JR66/W677; assay: microbe, parasite or virus in culture; format: cell-based; details: JR66/W677, 18 h
# Bacillus subtilis PCI219 = assay: MIC, serial dilution on Mueller Hinton agar; format: cell-based
# [9] = system: Escherichia coli K-12 ML 1629; assay: MIC, serial dilution on Mueller Hinton agar; format: cell-based; details: K12ML1629, Escherichia coli K-12 ML 1629, resistance mechanism APH(3')-I, 37°C, 18 hours
# Escherichia coli JR225 = assay: microbe, parasite or virus in culture; format: cell-based; details: Escherichia coli, JR225, 18 h
# [10] = system: Staphylococcus aureus Ap 01; assay: Antibacterial activity against resistant strain (background statement); format: cell-based; details: Staphylococcus aureus Ap 01, resistant strain producing enzyme reacting with the 4'-hydroxyl group
# [11] = system: Staphylococcus epidermidis 109; assay: as above; format: cell-based; details: Staphylococcus epidermidis 109, resistant strain producing enzyme reacting with the 4'-hydroxyl group
# [12] = Corynebacterium bovis 1810, Mueller Hinton agar, 37°C, 18 hours, read-out: MIC.
# [13] = GN311, Proteus rettgeri GN 311, Mueller Hinton agar, 37°C, 18 hours, read-out: MIC.
# [14] = Mueller Hinton agar, 37°C, 18 hours, read-out: MIC.
# [15] = Pseudomonas aeruginosa A3, Mueller Hinton agar, 37°C, 18 hours, read-out: MIC.
# [16] = Staphylococcus aureus Ap01, resistance mechanism ANT(4'), Mueller Hinton agar, 37°C, 18 hours, read-out: MIC.
# [17] = K12, Escherichia coli K-12, Mueller Hinton agar, 37°C, 18 hours, read-out: MIC.
# [18] = Staphylococcus aureus 209P, Mueller Hinton agar, 37°C, 18 hours, read-out: MIC.
# [19] = SP.PV16, Providencia sp. Pv 16, resistance mechanism AAC(2'), Mueller Hinton agar, 37°C, 18 hours, read-out: MIC.
# [20] = Bacillus subtilis PCI219, Mueller Hinton agar, 37°C, 18 hours, read-out: MIC.
# [21] = Mycobacterium 607, Mueller Hinton agar, 37°C, incubated for 40 hours, read-out: MIC.
SMILES,MIC [1] [µg/mL],MIC [2] [µg/mL],MIC [3] [µg/mL],"MIC [4, 12] [µg/mL]",MIC (Proteus rettgeri GN 311; [13]) [µg/mL],MIC (Escherichia coli K-12 R5) [µg/mL],MIC (Serratia marcescens; [14]) [µg/mL],"MIC [5, 15] [µg/mL]","MIC [6, 16] [µg/mL]",MIC (Escherichia coli K-12; [17]) [µg/mL],LD50 (in vivo) [mg/kg],"MIC [7, 18] [µg/mL]",MIC (Providencia sp. Pv 16; [19]) [µg/mL],MIC [8] [µg/mL],MIC (Bacillus subtilis PCI219; [20]) [µg/mL],MIC [9] [µg/mL],MIC (Escherichia coli JR225) [µg/mL],MIC (Mycobacterium 607; [21]) [µg/mL],also measured
"NC[C@H]1O[C@H](O[C@H]2[C@H](F)[C@@H](O[C@H]3O[C@H](CO)[C@@H](O)[C@H](N)[C@H]3O)[C@H](N)C[C@@H]2N)[C@H](N)C[C@@H]1O [Compound No. 2, 5,3'-Dideoxy-5-fluorokanamycin B]",50,3.12,3.12,1.56,< 0.2,25,6.25,< 0.2,0.39,< 0.2,200,0.39,–,–,–,–,–,–,"MIC (Providencia sp. Pv 16; Providencia, SP.PV16, 18 h): 3.12 µg/mL"
"NC[C@@H]1CC[C@@H](N)[C@@H](O[C@H]2[C@H](F)[C@@H](O[C@H]3O[C@H](CO)[C@@H](O)[C@H](N)[C@H]3O)[C@H](N)C[C@@H]2N)O1 [Compound No. 4, 5,3',4'-Trideoxy-5-fluorokanamycin B]",100,6.25,6.25,–,0.78,100,12.5,0.39,–,–,140,0.78,12.5,3.12,0.78,3.12,3.12,–,"MIC (Mycobacterium 607; Mycobacterium, 607, 40 h): 6.25 µg/mL; MIC ([4]; Corynebacterium bovis, 1810, 18 h): 6.25 µg/mL; MIC ([6]; Staphylococcus aureus, AP01, 18 h): 3.12 µg/mL; MIC (Escherichia coli K-12; Escherichia coli, K12, 18 h): 3.12 µg/mL"
"NCC[C@H](O)C(=O)N[C@@H]1C[C@H](N)[C@@H](O[C@H]2O[C@H](CN)CC[C@H]2N)[C@H](F)[C@H]1O[C@H]1O[C@H](CO)[C@@H](O)[C@H](N)[C@H]1O [Compound No. 13, 1-N-(4-Amino-2-(S)-hydroxybutyryl)-5,3',4-trideoxy-5-fluorokanamycin B]",6.25,0.78,0.78,< 0.2,< 0.2,50,1.56,0.39,0.78,0.2,150,0.39,0.78,0.78,0.39,0.39,0.2,0.78,–
"NC[C@H]1O[C@H](O[C@H]2[C@H](O)[C@@H](O[C@H]3O[C@H](CO)[C@@H](O)[C@H](N)[C@H]3O)[C@H](N)C[C@@H]2N)[C@H](N)C[C@@H]1O [TMB, 3'-deoxykanamycin B, reference compound]",50,25,12.5,6.25,0.2,100,–,< 0.2,1.56,0.39,80,< 0.2,6.25,12.5,< 0.2,–,25,–,MIC (Serratia marcescens; 18 h): 12.5 µg/mL
NCC1OC(OC2C(N)CC(N)C(OC3OC(CO)C(O)C(N)C3O)C2O)C(N)C(F)C1O (stereo not shown) [3'-fluoro-3'-deoxykanamycin B],–,–,–,–,–,–,–,–,–,–,–,–,–,–,–,–,–,–,antibacterial activity [10]: low antibacterial activity; antibacterial activity [11]: low antibacterial activity
"NC[C@H]1O[C@H](O[C@H]2[C@H](O)[C@@H](O[C@H]3O[C@H](CO)[C@@H](O)[C@H](N)[C@H]3O)[C@H](N)C[C@@H]2N)[C@H](N)[C@@H](O)[C@@H]1O [KMB, kanamycin B]",50,12.5,> 100,0.78,–,50,3.12,–,25,–,110,–,–,> 100,–,> 100,12.5,1.56,"MIC (Providencia sp. Pv 16; Providencia, SP.PV16, 18 h): 12.5 µg/mL; MIC (Proteus rettgeri GN 311; GN311, 18 h): 0.2 µg/mL; MIC ([5]; Pseudomonas aeruginosa, A3, 18 h): 1.56 µg/mL; MIC (Escherichia coli K-12; Escherichia coli, K12, 18 h): 0.39 µg/mL; MIC (Bacillus subtilis PCI219; Bacillus subtilis, PCI219, 18 h): < 0.2 µg/mL; MIC ([7]; Staphylococcus aureus, 209P, 18 h): 0.39 µg/mL"
"NCC[C@H](O)C(=O)N[C@@H]1C[C@H](N)[C@@H](O[C@H]2O[C@H](CN)[C@@H](O)C[C@H]2N)[C@H](F)[C@H]1O[C@H]1O[C@H](CO)[C@@H](O)[C@H](N)[C@H]1O [Compound No. 9, 1-N-(4-Amino-2-(S)-hydroxybutyryl)-5,3'-dideoxy-5-fluorokanamycin B]",6.25,0.78,1.56,< 0.2,< 0.2,3.12,–,0.39,0.78,< 0.2,150,0.39,0.78,0.78,< 0.2,0.78,0.39,0.78,MIC (Serratia marcescens; 18 h): 3.12 µg/mL
